Measurements reported in the NIST ThermoML archive (doi:10.1021/acs.jced.7b00263).
± gives the expanded uncertainty stated by the source.

Conditions: Liquid, Closed cell (Static) method

With `F/C=C\C(F)(F)F` [(Z)-1,3,3,3-tetrafluoro-1-propene] the “vapor or sublimation pressure” value (353.17 K) was 858.3 ± 1.4 kPa, the “vapor or sublimation pressure” value (373.14 K) was 1347.5 ± 2.1 kPa and the “vapor or sublimation pressure” value (393.12 K) was 2023.7 ± 3.2 kPa. The “vapor or sublimation pressure” value (413.14 K) was 2940.4 ± 4.6 kPa.
